Where a name gives a salt, the structure may show the parent alone.
Columns and labels:
[1] = test system: influenza virus Taiwan/1/86; test: Fetuin binding inhibition assay, influenza virus Taiwan/1/86; details: for A^i (absorbance): 492 nm
influenza virus X-31 = test: Fetuin binding inhibition assay, influenza virus X-31; details: for A^i (absorbance): 492 nm
[2] = test system: influenza virus B/USSR/100/83; test: Fetuin binding inhibition assay, influenza virus B/USSR/100/83; details: for A^i (absorbance): 492 nm
[3] = test system: influenza virus England/321/77; test: Fetuin binding inhibition assay, influenza virus England/321/77; details: for A^i (absorbance): 492 nm
[4] = test system: influenza virus USSR/3/85; test: Fetuin binding inhibition assay, influenza virus USSR/3/85; details: for A^i (absorbance): 492 nm
[5] = test system: influenza virus USSR/2/85; test: Fetuin binding inhibition assay, influenza virus USSR/2/85; details: for A^i (absorbance): 492 nm
[6] = test system: influenza virus USSR/90/77; test: Fetuin binding inhibition assay, influenza virus USSR/90/77; details: for A^i (absorbance): 492 nm
[7] = assay type: physicochemical; details: control solutions without enzyme
Procedure: Compound (IV) was incubated at 37° C. with Vibrio cholerae neuraminidase (450 U/ml) in 0.1M acetate buffer, pH 5.6, containing 0.9% NaCi and 0.1% CaCl2. Neuraminidase cleavage was determined on aliquots taken at intervals by TLC analysis (Merck silica gel plates in propanol/ethanol/25% aqueous ammonia, 2:2:1). Spots were developed by charring the plates with 3% H3 PO4 at 150° C. and quantitated densitometrically. The results are depicted in The FIGURE (v).

[8] = test system: influenza virus Philippines/2/82; test: Fetuin binding inhibition assay, influenza virus Philippines/2/82; details: for A^i (absorbance): 492 nm
[9] = test system: influenza virus B/Hong Kong/8/73; test: Fetuin binding inhibition assay, influenza virus B/Hong Kong/8/73; details: for A^i (absorbance): 492 nm
[10] = test system: influenza virus Chile/1/83; test: Fetuin binding inhibition assay, influenza virus Chile/1/83; details: for A^i (absorbance): 492 nm
influenza viruses = test: Fetuin binding inhibition assay, influenza virus strains overall
[11] = test system: influenza virus B/Singapore/222/79; test: Fetuin binding inhibition assay, influenza virus B/Singapore/222/79; details: for A^i (absorbance): 492 nm
[12] = test system: influenza virus Victoria/3/75; test: Fetuin binding inhibition assay, influenza virus Victoria/3/75; details: for A^i (absorbance): 492 nm
[13] = test system: influenza virus Texas/1/77; test: Fetuin binding inhibition assay, influenza virus Texas/1/77; details: for A^i (absorbance): 492 nm
[14] = test system: influenza virus Port Chalmers/1/73; test: Fetuin binding inhibition assay, influenza virus Port Chalmers/1/73; details: for A^i (absorbance): 492 nm

CC(=S)NC1C(O)CC(OCc2ccccc2)(C(=O)O)OC1C(O)C(O)CO [IV, benzyl 3,5-dideoxy5-thioacetamido-α-D-glycero-D-galacto-nonulopyranosidonicacid (sodium salt)]
-lgKd(i) ([1]; 1.28 mM sialoside): 3.2
A^i (absorbance) ([1]; 1.28 mM sialoside): 0.33
-lgKd(i) ([1]; 2.56 mM sialoside): 3.2
A^i (absorbance) ([1]; 2.56 mM sialoside): 0.21
-lgKd(i) ([1]; .08 mM sialoside): 3.3
A^i (absorbance) ([1]; .08 mM sialoside): 0.68
-lgKd(i) ([1]; .16 mM sialoside): 3.3
A^i (absorbance) ([1]; .16 mM sialoside): 0.62
-lgKd(i) ([1]; .32 mM sialoside): 3.2
A^i (absorbance) ([1]; .32 mM sialoside): 0.55
-lgKd(i) ([1]; .64 mM sialoside): 3.1
A^i (absorbance) ([1]; .64 mM sialoside): 0.47
-lgKd ± SD ([1]; mean over concentrations): 3.2 ± 0.08
-lgKd(i) (influenza virus X-31; 1.28 mM sialoside): 3.3
A^i (absorbance) (influenza virus X-31; 1.28 mM sialoside): 0.34
-lgKd(i) (influenza virus X-31; 2.56 mM sialoside): 3.2
A^i (absorbance) (influenza virus X-31; 2.56 mM sialoside): 0.24
-lgKd(i) (influenza virus X-31; .08 mM sialoside): 3.2
A^i (absorbance) (influenza virus X-31; .08 mM sialoside): 0.86
-lgKd(i) (influenza virus X-31; .16 mM sialoside): 3.4
A^i (absorbance) (influenza virus X-31; .16 mM sialoside): 0.72
-lgKd(i) (influenza virus X-31; .32 mM sialoside): 3.3
A^i (absorbance) (influenza virus X-31; .32 mM sialoside): 0.65
-lgKd(i) (influenza virus X-31; .64 mM sialoside): 3.3
A^i (absorbance) (influenza virus X-31; .64 mM sialoside): 0.51
-lgKd ± SD (influenza virus X-31; mean over concentrations): 3.3 ± 0.08
-lgKd(i) ([2]; 1.28 mM sialoside): 3.7
A^i (absorbance) ([2]; 1.28 mM sialoside): 0.15
-lgKd(i) ([2]; 2.56 mM sialoside): 3.7
A^i (absorbance) ([2]; 2.56 mM sialoside): 0.08
-lgKd(i) ([2]; .16 mM sialoside): 3.3
A^i (absorbance) ([2]; .16 mM sialoside): 0.52
-lgKd(i) ([2]; .32 mM sialoside): 3.5
A^i (absorbance) ([2]; .32 mM sialoside): 0.40
-lgKd(i) ([2]; .64 mM sialoside): 3.7
A^i (absorbance) ([2]; .64 mM sialoside): 0.25
-lgKd ± SD ([2]; mean over concentrations): 3.6 ± 0.2
-lgKd(i) ([3]; 1.28 mM sialoside): 3.7
A^i (absorbance) ([3]; 1.28 mM sialoside): 0.21
-lgKd(i) ([3]; 2.56 mM sialoside): 3.5
A^i (absorbance) ([3]; 2.56 mM sialoside): 0.16
-lgKd(i) ([3]; .08 mM sialoside): 3.4
A^i (absorbance) ([3]; .08 mM sialoside): 0.98
-lgKd(i) ([3]; .16 mM sialoside): 3.7
A^i (absorbance) ([3]; .16 mM sialoside): 0.73
-lgKd(i) ([3]; .32 mM sialoside): 3.7
A^i (absorbance) ([3]; .32 mM sialoside): 0.56
-lgKd(i) ([3]; .64 mM sialoside): 3.7
A^i (absorbance) ([3]; .64 mM sialoside): 0.37
-lgKd ± SD ([3]; mean over concentrations): 3.6 ± 0.13
-lgKd(i) ([4]; 1.28 mM sialoside): 3.6
A^i (absorbance) ([4]; 1.28 mM sialoside): 0.32
-lgKd(i) ([4]; 2.56 mM sialoside): 3.8
A^i (absorbance) ([4]; 2.56 mM sialoside): 0.12
-lgKd(i) ([4]; .08 mM sialoside): 3.8
A^i (absorbance) ([4]; .08 mM sialoside): 1.05
-lgKd(i) ([4]; .16 mM sialoside): 3.8
A^i (absorbance) ([4]; .16 mM sialoside): 0.81
-lgKd(i) ([4]; .32 mM sialoside): 3.8
A^i (absorbance) ([4]; .32 mM sialoside): 0.62
-lgKd(i) ([4]; .64 mM sialoside): 3.7
A^i (absorbance) ([4]; .64 mM sialoside): 0.43
-lgKd ± SD ([4]; mean over concentrations): 3.8 ± 0.08
-lgKd(i) ([5]; 1.28 mM sialoside): 2.6
A^i (absorbance) ([5]; 1.28 mM sialoside): 0.23
-lgKd(i) ([5]; 2.56 mM sialoside): 2.5
A^i (absorbance) ([5]; 2.56 mM sialoside): 0.21
-lgKd(i) ([5]; .64 mM sialoside): 2.6
A^i (absorbance) ([5]; .64 mM sialoside): 0.28
-lgKd ± SD ([5]; mean over concentrations): 2.6 ± 0.06
-lgKd(i) ([6]; 1.28 mM sialoside): 3.2
A^i (absorbance) ([6]; 1.28 mM sialoside): 0.41
-lgKd(i) ([6]; 2.56 mM sialoside): 3.2
A^i (absorbance) ([6]; 2.56 mM sialoside): 0.23
-lgKd(i) ([6]; .08 mM sialoside): 3.1
A^i (absorbance) ([6]; .08 mM sialoside): 0.94
-lgKd(i) ([6]; .16 mM sialoside): 3.2
A^i (absorbance) ([6]; .16 mM sialoside): 0.84
-lgKd(i) ([6]; .32 mM sialoside): 3.2
A^i (absorbance) ([6]; .32 mM sialoside): 0.73
-lgKd(i) ([6]; .64 mM sialoside): 3.2
A^i (absorbance) ([6]; .64 mM sialoside): 0.6
-lgKd ± SD ([6]; mean over concentrations): 3.1 ± 0.09
Stability in the absence of enzyme [7]: at least 23 hours
-lgKd(i) ([8]; 1.60 mM sialoside): 4.1
A^i (absorbance) ([8]; 1.60 mM sialoside): 0.20
-lgKd(i) ([8]; .05 mM sialoside): 4.0
A^i (absorbance) ([8]; .05 mM sialoside): 0.75
-lgKd(i) ([8]; .10 mM sialoside): 4.4
A^i (absorbance) ([8]; .10 mM sialoside): 0.59
-lgKd(i) ([8]; .20 mM sialoside): 4.1
A^i (absorbance) ([8]; .20 mM sialoside): 0.56
-lgKd(i) ([8]; .40 mM sialoside): 4.1
A^i (absorbance) ([8]; .40 mM sialoside): 0.43
-lgKd(i) ([8]; .80 mM sialoside): 4.1
A^i (absorbance) ([8]; .80 mM sialoside): 0.32
-lgKd ± SD ([8]; mean over concentrations): 4.1
-lgKd(i) ([9]; 1.28 mM sialoside): 2.6
A^i (absorbance) ([9]; 1.28 mM sialoside): 0.46
-lgKd(i) ([9]; 2.56 mM sialoside): 2.7
A^i (absorbance) ([9]; 2.56 mM sialoside): 0.32
-lgKd(i) ([9]; .64 mM sialoside): 2.5
A^i (absorbance) ([9]; .64 mM sialoside): 0.54
-lgKd ± SD ([9]; mean over concentrations): 2.6 ± 0.1
-lgKd(i) ([10]; 1.28 mM sialoside): 3.6
A^i (absorbance) ([10]; 1.28 mM sialoside): 0.36
-lgKd(i) ([10]; 2.56 mM sialoside): 3.5
A^i (absorbance) ([10]; 2.56 mM sialoside): 0.25
-lgKd(i) ([10]; .08 mM sialoside): 3.5
A^i (absorbance) ([10]; .08 mM sialoside): 1.27
-lgKd(i) ([10]; .16 mM sialoside): 3.5
A^i (absorbance) ([10]; .16 mM sialoside): 1.14
-lgKd(i) ([10]; .32 mM sialoside): 3.5
A^i (absorbance) ([10]; .32 mM sialoside): 0.89
-lgKd(i) ([10]; .64 mM sialoside): 3.5
A^i (absorbance) ([10]; .64 mM sialoside): 0.63
-lgKd ± SD ([10]; mean over concentrations): 3.5 ± 0.04
Inhibition of virus strains (influenza viruses): inhibits some virus strains better than its analog
-lgKd(i) ([11]; 1.28 mM sialoside): 3.6
A^i (absorbance) ([11]; 1.28 mM sialoside): 0.18
-lgKd(i) ([11]; 2.56 mM sialoside): 3.7
A^i (absorbance) ([11]; 2.56 mM sialoside): 0.09
-lgKd(i) ([11]; .32 mM sialoside): 3.2
A^i (absorbance) ([11]; .32 mM sialoside): 0.56
-lgKd(i) ([11]; .64 mM sialoside): 3.5
A^i (absorbance) ([11]; .64 mM sialoside): 0.35
-lgKd ± SD ([11]; mean over concentrations): 3.5 ± 0.2
-lgKd(i) ([12]; 1.60 mM sialoside): 3.3
A^i (absorbance) ([12]; 1.60 mM sialoside): 0.35
-lgKd(i) ([12]; .05 mM sialoside): 3.3
A^i (absorbance) ([12]; .05 mM sialoside): 0.71
-lgKd(i) ([12]; .10 mM sialoside): 3.3
A^i (absorbance) ([12]; .10 mM sialoside): 0.69
-lgKd(i) ([12]; .20 mM sialoside): 3.5
A^i (absorbance) ([12]; .20 mM sialoside): 0.61
-lgKd(i) ([12]; .40 mM sialoside): 3.4
A^i (absorbance) ([12]; .40 mM sialoside): 0.56
-lgKd(i) ([12]; .80 mM sialoside): 3.4
A^i (absorbance) ([12]; .80 mM sialoside): 0.46
-lgKd ± SD ([12]; mean over concentrations): 3.4 ± 0.08
-lgKd(i) ([13]; 1.60 mM sialoside): 4.0
A^i (absorbance) ([13]; 1.60 mM sialoside): 0.35
-lgKd(i) ([13]; .05 mM sialoside): 3.8
A^i (absorbance) ([13]; .05 mM sialoside): 1.0
-lgKd(i) ([13]; .10 mM sialoside): 4.1
A^i (absorbance) ([13]; .10 mM sialoside): 0.9
-lgKd(i) ([13]; .20 mM sialoside): 4.0
A^i (absorbance) ([13]; .20 mM sialoside): 0.83
-lgKd(i) ([13]; .40 mM sialoside): 4.0
A^i (absorbance) ([13]; .40 mM sialoside): 0.70
-lgKd(i) ([13]; .80 mM sialoside): 3.9
A^i (absorbance) ([13]; .80 mM sialoside): 0.55
-lgKd ± SD ([13]; mean over concentrations): 4.0 ± 0.1
-lgKd(i) ([14]; 1.60 mM sialoside): 3.2
A^i (absorbance) ([14]; 1.60 mM sialoside): 0.25
-lgKd(i) ([14]; .05 mM sialoside): 3.2
A^i (absorbance) ([14]; .05 mM sialoside): 0.55
-lgKd(i) ([14]; .10 mM sialoside): 3.4
A^i (absorbance) ([14]; .10 mM sialoside): 0.51
-lgKd(i) ([14]; .20 mM sialoside): 3.4
A^i (absorbance) ([14]; .20 mM sialoside): 0.47
-lgKd(i) ([14]; .40 mM sialoside): 3.3
A^i (absorbance) ([14]; .40 mM sialoside): 0.42
-lgKd(i) ([14]; .80 mM sialoside): 3.1
A^i (absorbance) ([14]; .80 mM sialoside): 0.40
-lgKd ± SD ([14]; mean over concentrations): 3.3 ± 0.1

From US5571836A, “Viral attachment inhibitors” (priority 1995, dated 1996)
